Reference: US9931629B2, “Substance exposure apparatus” (The University of Queensland, priority 2011, dated 2018)
“Also recorded” adds a separate entry of the source.

What was measured:
Format in all cases: cell-based, human
[1] = test system: HES3-MIXL1-GFP hESCs; assay: Primitive streak differentiation screening in array of BIO, BMP-4 and Activin A (MIXL1-GFP reporter)
Procedure: Cells were allowed to attach to the well array 330 for 8-10 h in an incubator (37° C., 5% CO2 in air), then subjected to continuous fluid flow under the specified factor conditions at 60 μL/h total flowrate.
Serial exchange of staining and washing solutions was driven by a syringe pump.
Spot intensities in each channel were linearly transformed about the mean and standard deviation for all spots in that channel in an individual array, by IEOS-GFP=(TEOS-GFP−μEOS-GFP)/σEOS-GFP, where IEOS-GFP is the expression index of EOS-GFP, and μEOS-GFP is the mean and σEOS-GFP the standard deviation of all TEOS-GFP for a particular array. This provides expression indices (IEOS-GFP, IMIXL1-GFP) rating each spot's intensity in terms of global standard deviations relative to the global mean.
Factorial analyses are performed on expression index data with MINITAB 15 software (Minitab Inc.). Expression indices were designated as response variables and soluble factors designated as inputs. A fourth input variable, ‘Position’, was defined based on each culture well's row coordinate in the array. Effect magnitudes were then generated by MINITAB according to methods described elsewhere^45. Pearson product-moment correlation coefficients (rX,Y), coefficients of determination for linear regression (R^2), and Student's t-test statistics were calculated with Microsoft Excel. For Student's t-tests, two-tailed tests were performed for two samples assuming unequal variances, and differences with p<0.05 were considered significant.
HES3-MIXL1-GFP hESCs (also, HES3 MIXL1^GFP/w hESCs; karyotying and in vivo teratomas) growing as a monolayer were differentiated under continual flow in the apparatus 300 for 2.5 d in a full-factorial array of BMP-4, Activin A, and the GSK-3β inhibitor/canonical Wnt activator 6-bromoindirubin-3′-oxime (BIO) in RPMI B27 medium. A screening panel showing array conditions is shown in FIG. 6A, with numbers indicating concentrations of BIO (μM), BMP-4 (ng/mL) and Activin A (ng/mL).

[2] = test system: HES3-MIXL1-GFP hESCs; assay: Primitive streak array screening of CHIR99021, conditioned medium and IWP-4 (MIXL1-GFP reporter); settings: background RPMI B27 with 10 ng/mL BMP-4 and 6 ng/mL Activin A, continuous flow
Procedure: For use in apparatus 300, conditioned medium was recovered from static controls differentiated in 10 ng/mL BMP-4 and 6 ng/mL Activin A in RPMI B27 medium. Cells were removed by centrifugation and supernatant medium stored at 4° C. Media from days 1 and 2 were mixed and BMP-4 and Activin A re-supplemented at 50% of nominal levels before use in arrays.

[3] = test system: HES3-MIXL1-GFP hESCs; assay: Static primitive streak induction cultures with chemical modulation of Wnt signals
Procedure: HES3-MIXL1-GFP hESCs maintained in mTeSR-1/Matrigel cultures were detached with TrypLE Express, seeded at 7.5×10^4 cells/cm^2 into 24-well plates coated with a limiting dilution of hESC-qualified Matrigel and allowed to attach overnight, after which cultures were typically ˜60% confluent. MIXL1-GFP expression was then induced by differentiating in RPMI B27 medium with 10 ng/ml BMP-4 and 6 ng/ml Activin A (both R&D Systems) for 2.5 d with optional addition of 5 μM IWP-4 and 5 μM CHIR99021 (both Stemgent), or 0.1% v/v DMSO vehicle control.
Although such paracrine factor dependencies and negative feedback signals regulating mesendoderm specification are clearly necessary developmental drivers in a transient in vivo structure such as primitive streak, they inevitably reduce efficiency of in vitro differentiation. It was therefore tested whether the outcomes of modulating positive and negative paracrine regulators in the array could be translated to optimise directed differentiation protocols in conventional static cultures.

[4] = 2.5 d, continual flow, RPMI B27 medium

For O=C1Nc2cc(Br)ccc2/C1=C1/Nc2ccccc2/C1=N\O [BIO, 6-bromoindirubin-3′-oxime], the “optimum concentration for expression index IMIXL1-GFP (factorial analysis)” value ([1]; 2.5 d, continual flow, RPMI B27 medium, levels 0, 1, 2 μM) was 1 µM and the “number of rows over which bright MIXL1-GFP expression extended” value ([1]; column 15: 1 μM BIO with 10 ng/mL BMP-4, 6 ng/mL Activin A, single peak at row 7 without BIO) was 4-5 rows.

With Cc1c[nH]c(-c2cnc(NCCNc3ccc(C#N)cn3)nc2-c2ccc(Cl)cc2Cl)n1 [CHIR99021] the “effect on MIXL1-GFP expression level and position in the array” value [2] was “only shifted expression up marginally; also recorded: produced an extended streak of MIXL1-GFP expression”, the “effect on MIXL1-GFP expression level and position in the array” value ([2]; listed as CHIR) was “both improved the expression level and broadened the number of rows over which appreciable expression extended” and the “MIXL1-GFP induction, % of cells” value ([3]; 5 μM CHIR99021 added to RPMI B27+10 ng/mL BMP-4+6 ng/mL Activin A, 2.5 d, 51% under standard conditions) was 86%.

COc1ccccc1-n1c(SCC(=O)Nc2nc3ccc(C)cc3s2)nc2c(c1=O)SCC2 [IWP-4] was tested, and the MIXL1 induction ([3]; static controls, FIG. 7H, 5 μM IWP-4) was “completely blocked MIXL1 induction”.

B1: Activin A: soluble growth factor (R&D Systems) used for primitive streak induction (protein, UniProt P08476 311-426, looked up)
Inhibin beta A chain: GLECDGKVNICCKKQFFVSFKDIGWNDWIIAPSGYHANYCEGECPSHIAGTSGSSLSFHSTVINHYRMRGHSPFANLKSCCVPTKLRPMSMLYYDDGQNIIKKDIQNMIVEECGCS
B1 was tested, and the “dependence of expression index IMIXL1-GFP on factor (factorial analysis)” value [1, 4] was “linear, positive dependence”.

B2: BMP-4: soluble growth factor (R&D Systems) used for primitive streak induction (protein, UniProt P12644 293-408, looked up)
Bone morphogenetic protein 4: SPKHHSQRARKKNKNCRRHSLYVDFSDVGWNDWIVAPPGYQAFYCHGDCPFPLADHLNSTNHAIVQTLVNSVNSSIPKACCVPTELSAISMLYLDEYDKVVLKNYQEMVVEGCGCR
For B2, the “optimum concentration for expression index IMIXL1-GFP (factorial analysis)” value [1, 4] was 10 ng/mL.
